PubChem BioAssay AID248 (DTP/NCI, 2004)
Where “and” joins values, the source holds several entries; their conditions need not be identical. Equal values may be shown once. Toxic doses and inconclusive results are not listed.

Tested on: L1210 leukemia ip in BDF1 mice, survival T/C
Experiment: NCI In Vivo Anticancer Drug Screen. Data for tumor model L1210 Leukemia (intraperitoneal) in B6D2F1 (BDF1) mice
Settings: endpoint: mean survival time, higher = longer survival
How it was run: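 Read-out is survival time, reported as the treated-group measurement over the vehicle-control measurement.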

[1] = dose: 100.0 mg/kg/injection, schedule: Q04DX002 (ip), vehicle: Klucel (hydroxypropylcellulose) (HPC)
[2] = dose: 200.0 mg/kg/injection, schedule: Q04DX002 (ip), vehicle: Klucel (hydroxypropylcellulose) (HPC)
[3] = dose: 400.0 mg/kg/injection, schedule: Q04DX002 (ip), vehicle: Klucel (hydroxypropylcellulose) (HPC)
[4] = dose: 200.0 mg/kg/injection, schedule: Q04DX003 (ip), vehicle: saline with Tween-80
[5] = dose: 400.0 mg/kg/injection, schedule: Q04DX003 (ip), vehicle: saline with Tween-80
[6] = dose: 100.0 mg/kg/injection, schedule: Q01DX009 (ip), vehicle: Klucel (hydroxypropylcellulose) (HPC)
[7] = dose: 100.0 mg/kg/injection, schedule: Q04DX003 (ip), vehicle: Klucel (hydroxypropylcellulose) (HPC)
[8] = dose: 200.0 mg/kg/injection, schedule: Q04DX003 (ip), vehicle: Klucel (hydroxypropylcellulose) (HPC)

With COc1ccc(C2N(C=O)CC34CC(=O)C=CC23C4)cc1O (stereo not drawn) the T/C (dose: 100.0 mg/kg/injection, schedule: Q04DX003 (ip), vehicle: saline) was 95 % of control, the T/C (dose: 200.0 mg/kg/injection, schedule: Q04DX003 (ip), vehicle: saline) was 93 % of control and the T/C (dose: 400.0 mg/kg/injection, schedule: Q04DX003 (ip), vehicle: saline) was 95 % of control.
In the case of Nc1[nH]c(=S)[nH]c(=O)c1NC=O, the T/C (dose: 16.0 mg/kg/injection, schedule: Q01DX Z (ip), vehicle: methylcellulose (MC)) is reported as 103 % of control, the T/C (dose: 31.0 mg/kg/injection, schedule: Q01DX Z (ip), vehicle: methylcellulose (MC)) is reported as 106 % of control and the T/C (dose: 62.0 mg/kg/injection, schedule: Q01DX Z (ip), vehicle: methylcellulose (MC)) is reported as 108 % of control. For the same molecule, the T/C (dose: 125.0 mg/kg/injection, schedule: Q01DX Z (ip), vehicle: methylcellulose (MC)) was 96 % of control and 97 % of control, the T/C (dose: 250.0 mg/kg/injection, schedule: Q01DX Z (ip), vehicle: methylcellulose (MC)) was 100 % of control and the T/C (dose: 500.0 mg/kg/injection, schedule: Q01DX Z (ip), vehicle: methylcellulose (MC)) was 112 % of control.
Cc1ccc(N=[N+]([O-])c2ccc(C)c(Br)c2)cc1Br was tested, and the T/C [1] was 102 % of control, the T/C [2] was 98 % of control and the T/C [3] was 98 % of control.
For O=C(COc1cccc(Cl)c1Cl)Nc1cccnc1, the T/C (dose: 100.0 mg/kg/injection, schedule: Q04DX003 (ip), vehicle: saline with Tween-80) was 102 % of control, the T/C [4] was 96 % of control and the T/C [5] was 98 % of control.
For CN(C)C1(Cc2ccccc2)c2ccccc2-c2ccc(Br)cc21 (stereo not drawn), the T/C (dose: 6.25 mg/kg/injection, schedule: Q01DX009 (ip), vehicle: saline with Tween-80) was 92 % of control, the T/C (dose: 12.5 mg/kg/injection, schedule: Q01DX009 (ip), vehicle: saline with Tween-80) was 89 % of control and the T/C (dose: 25.0 mg/kg/injection, schedule: Q01DX009 (ip), vehicle: saline with Tween-80) was 89 % of control. For the same molecule, the T/C (dose: 100.0 mg/kg/injection, schedule: Q01DX009 (ip), vehicle: saline with Tween-80) was 88 % of control.
With CC(C)(CN=Cc1ccccc1[O-])N=Cc1ccccc1[O-].[O]=[V] the T/C (dose: 50.0 mg/kg/injection, schedule: Q01DX009 (ip), vehicle: saline with Tween-80) was 98 % of control.
O=c1ccc(=O)n(-c2ccccc2)[nH]1 was tested, and the T/C [6] was 95 % of control, the T/C [7] was 92 % of control and the T/C (dose: 200.0 mg/kg/injection, schedule: Q01DX009 (ip), vehicle: Klucel (hydroxypropylcellulose) (HPC)) was 93 % of control. For the same molecule, the T/C [8] was 106 % of control, the T/C (dose: 267.0 mg/kg/injection, schedule: Q04DX003 (ip), vehicle: Klucel (hydroxypropylcellulose) (HPC)) was 110 % of control and the T/C (dose: 400.0 mg/kg/injection, schedule: Q01DX009 (ip), vehicle: Klucel (hydroxypropylcellulose) (HPC)) was 95 % of control. For the same molecule, the T/C (dose: 400.0 mg/kg/injection, schedule: Q04DX003 (ip), vehicle: Klucel (hydroxypropylcellulose) (HPC)) was 104 % of control and the T/C (dose: 600.0 mg/kg/injection, schedule: Q04DX003 (ip), vehicle: Klucel (hydroxypropylcellulose) (HPC)) was 105 % of control.
For CC(=O)Nc1ccc(C(=O)Nc2ccc(C3=NCCN3)cc2)cc1C(=O)Nc1ccc(C2=NCCN2)cc1, the T/C (dose: 62.0 mg/kg/injection, schedule: Q01DX015 (ip), vehicle: carboxymethylcellulose (CMC)) was 317 % of control and the T/C (dose: 250.0 mg/kg/injection, schedule: Q01DX015 (ip), vehicle: carboxymethylcellulose (CMC)) was 158 % of control.
In the case of CC(C)(C)c1ccc(S(=O)(=O)c2ccc(C(C)(C)C)c([N+](=O)[O-])c2)cc1[N+](=O)[O-], the T/C [1] is reported as 101 % of control, the T/C [2] is reported as 92 % of control and the T/C [3] is reported as 105 % of control.
CC(C)(C)OC(=O)c1c2ccccc2cc2ccccc12 was tested, and the T/C (dose: 100.0 mg/kg/injection, schedule: Q04DX002 (ip), vehicle: gum acacia) was 99 % of control, the T/C (dose: 200.0 mg/kg/injection, schedule: Q04DX002 (ip), vehicle: gum acacia) was 101 % of control and the T/C (dose: 400.0 mg/kg/injection, schedule: Q04DX002 (ip), vehicle: gum acacia) was 105 % of control.
In the case of CC(C)[CH2][Sn]([CH2]C(C)C)([CH2]C(C)C)[C](C)(C)C, the T/C (dose: 100.0 mg/kg/injection, schedule: Q04DX002 (ip), vehicle: saline) is reported as 94 % of control, the T/C (dose: 200.0 mg/kg/injection, schedule: Q04DX002 (ip), vehicle: saline) is reported as 90 % of control and the T/C (dose: 400.0 mg/kg/injection, schedule: Q04DX002 (ip), vehicle: saline) is reported as 100 % of control.
With O=C(Nc1ccccc1-c1ccc([N+](=O)[O-])cc1)c1cccc2ccccc12 the T/C [4] was 87 % of control and the T/C [5] was 90 % of control.
With CC(C)(NCc1ccccc1)C(=O)c1ccccc1 the T/C (dose: 50.0 mg/kg/injection, schedule: Q01DX001 (ip), vehicle: carboxymethylcellulose (CMC)) was 100 % of control, the T/C (dose: 50.0 mg/kg/injection, schedule: Q04DX003 (ip), vehicle: Klucel (hydroxypropylcellulose) (HPC)) was 95 % of control and the T/C (dose: 100.0 mg/kg/injection, schedule: Q01DX001 (ip), vehicle: carboxymethylcellulose (CMC)) was 102 % of control. For the same molecule, the T/C [6] was 105 % of control, the T/C [7] was 93 % of control and the T/C (dose: 200.0 mg/kg/injection, schedule: Q01DX001 (ip), vehicle: carboxymethylcellulose (CMC)) was 90 % of control. The T/C [8] was 95 % of control.
